The record followed here is PMC11912270, “Synthesis and SAR Studies of Acyl-Thiourea Platinum(II) Complexes Yield Analogs with Dual-Stage Antiplasmodium Activity” (ACS Medicinal Chemistry Letters, 2025).

Series [1] can be described thus: Plasma protein binding by ultracentrifugation. It is filed as in vitro ADME, human. The method, then: (§1) To determine the PK parameters, blood samples were collected from the tail vein of the mice into heparinized microcentrifugation tubes at distinct sampling times (0.17, 0.5, 1, 3, 5, 7, 9, 24, and 48 hours for intravenous dosing; 0.5, 1, 3, 5, 7, 9, 24 and 48 hours for oral dosing). All samples were stored at -80 °C until extraction.
For the bioanalysis, frozen whole blood was thawed at room temperature and 1-0 µL of each sample was extracted by protein precipitation (using 100 µL of acetonitrile containing 10 ng/ml of the internal standard, MMV394902). The sample was centrifuged. Supernatants of each sample were injected into the LC-MS/MS column for analysis. The analytical limit of quantitation (LOQ) was 2 ng/mL. The pharmacokinetic parameters were calculated using noncompartmental analysis using PK Solutions 2.0 (Summit Research Services, Montrose, CO, USA) and a curve stripping-based method.
1.10. […]
In preparation for the assay, the required membrane filters were precoated with hexadecane (5%) in hexane and were allowed to dry. […] The samples were analyzed using LCMS/MS (Agilent rapid resolution HPLC, AB SCIEX 4500 MS). The permeability (Papp) was calculated by using the normalized (analyte/internal standard) peak areas. Membrane integrity was calculated from the Papp of Lucifer yellow (acceptable values <50nm/s) using a Modulus microplate reader. […]

The nature of series [2]: In vivo pharmacokinetics in female Balb/C mice. Also on record: species or system mouse. The procedure: In this regard, three replicates of female Balb/C mice were dosed at either 3 mg/kg (intravenously, i.v.) or 10 mg/kg (orally, p.o.). Blood was sampled at specific time intervals over 48 h. The corresponding PK parameters were calculated using noncompartmental analysis (Table 2). […]
1.9. Determination of pharmacokinetic parameters […]
parameters. Compounds were administered either intravenously as a bolus solution […]
Mice were allowed to eat and access water freely.
as §1
For the bioanalysis, frozen whole blood was thawed at room temperature and 1-0 µL of each sample was extracted by protein precipitation (using 100 µL of acetonitrile containing 10 ng/ml of the internal standard, MMV394902). The sample was centrifuged. Supernatants of each sample were injected into the LC-MS/MS column for analysis. The analytical limit of quantitation (LOQ) was 2 ng/mL. The pharmacokinetic parameters were calculated using noncompartmental analysis using PK Solutions 2.0 (Summit Research Services, Montrose, CO, USA) and a curve stripping-based method. […]
1.11. Plasma protein binding (PPB)
To determine the percentage of test compound bound to plasma, ultracentrifugation was used.
The test compound (5 µM of a 10 mM DMSO stock) was used to spike pooled human plasma.
An aliquot of the spiked solution was removed immediately and quenched with carbamazepine, […]

Series [3] has as its system late-stage gametocytes (NF54-PfS16-GFP-Luc). Briefly: Luciferase reporter assay, late-stage gametocytes. It is filed as cell-based, Plasmodium falciparum. The procedure: All the complexes were tested for their early- and late-stage gametocyte activity in a dual-point assay (1 μM and 5 μM). […]
1.5.In vitro activity against gametocyte stages
PfNF54 gametocytes were prepared and isolated according to the method reported by Reader […]
The in vitro gametocyte activity of the synthesized complexes was determined using a luciferase reporter line-based assay.
NF54-PfS16-GFP-Luc parasites were used for the stage-specific assessment of gametocytocidal activity. Early-stage gametocyte (stage I-III) experiments were performed on day 5 (representing >90% of early-stage and late-stage gametocyte (stages IV/V) experiments were performed on day 10. In each experiment, assays were set up with the use of 2-3% […]
Luciferase activity was determined in 30 µL parasite lysates by adding luciferin substrate (30 µL) (Promega Luciferase Assay System) at room temperature. […]

Series [4] has as its system ABS parasites. Briefly: Dual point activity against ABS parasites. The format is cell-based, Plasmodium falciparum. Conditions: single biological repeat. An excerpt: Table S2: Dual point activity of platinum(II) complexes against ABS parasites, early- and late-
stage gametocytes. Values are averaged from technical triplicates performed for a single

The structures appear in SMILES notation. pIC50: −log10 of the molar value.

`Nc1cc[n+]2c(c1)-c1cc(N)cc[n+]1[Pt-2]21[O+]=C(c2ccccc2)N=C(N(CCO)CCO)[S]1.[Cl-]` [C6] gave a Fu in series [1] (Fu = (100 – PPB)/100) of 0.01. Besides, the “PPB (% bound)” value in series [1] (human plasma, 5 µM) is on record as 99% bound. Moreover, in series [2] (3 mg/kg i.v.), the CLs i.v. is recorded as 46.4 mL/min/kg and the T1/2 i.v. worked out at 10.8 h. The same compound registered a T1/2 p.o. in series [2] (10 mg/kg p.o.) of 12.0 h. Also, the Bioavailability in series [2] (10 mg/kg p.o. vs 3 mg/kg i.v.) came to 3.8%. In series [2] (female Balb/C mice, 3 mg/kg i.v.), this compound displayed a Vss i.v. of 45.6 L/kg. The Vssu in series [2] (i.v., unbound fraction) was 4560 L/kg. Besides, the CLu in series [2] (p.o., unbound fraction) is recorded as greater than 1000 mL min^–1 kg^–1. This compound returned a CLu i.v. in series [2] (unbound fraction, Clu = Cls/Fu, i.v.) greater than 1000 mL/min/kg. For the same compound, in series [2] (unbound fraction, Vssu = Vss/Fu, 3 mg/kg i.v.), the Vssu i.v. amounted to 4560 L/kg. In series [3] (1 µM, single biological repeat), the “LG (% inhibition) 1 µM” value was 42.3 % inhibition. Also, the “LG (% inhibition) 5 µM” value in series [3] (5 µM, single biological repeat) stood at 32.4 % inhibition. For the same compound, the pIC50 in series [3] (late (IV/V) gametocytes, luciferase, 48 h, read-out: LG IC50) was less than 4.70. In addition, the “ABS (% inhibition) 1 µM” value in series [4] (1 µM) came out at 100.7 % inhibition. In series [4] (5 µM), the “ABS (% inhibition) 5 µM” value turned out to be 100.2 % inhibition.

In general, pIC50 refers to the negative decadic logarithm of the IC50, by convention in mol/L.
